The values that follow come from patent publication US20260263517A1, “THERAPEUTIC METHODS WITH TARGET-LINKED SMALL MOLECULES AND ANTI-TARGET CAR T CELLS” (Seattle Children's Hospital (dba Seattle Children's …, priority 2022, published 2026).

Entries after “also recorded” stand apart in the source; their conditions may differ.

One data set deals with THP1-FRβ tumor cells. Put plainly: intravenous THP1-FRβ AML xenograft, E2 CAR-T cells plus EC17 dosing regimens. In kind it is in vivo. The method, then: One objective of this E2-CAR T-cell study was to test EC17/E2 CAR-T cell activity and related toxicity (e.g., sCRS) using multiple dosing regimens starting 3 days after CAR-T infusion. Three different EC17 dosing regimens include (a) once-a-week (SIW) at 500 nmol/kg, (b) “T1W-like” at 5, 50, and 500 nmol/kg on Monday/Wednesday/Friday with 9-day intervals, and (c) “T1W-like” at 5, 100, and 1000 nmol/kg on Monday/Thursday/Monday with 7-day intervals.
THP-1-FRβ AML tumor cells were grown in folate-deficient RPMI 1640 with 5-10% FBS at 37° C. in a 5% CO2 humidified atmosphere. THP-1-FRO tumor cells in serum-free folate-deficient RPMI1640 medium were i.v. injected at 5×10^6 cells per animal.
Anti-FITC E2 scFv-CAR T cells were frozen in a T-cell freezing medium. Upon arrival, vials of frozen CAR-T cells were immediately stored at −80° C. The CAR-T cells were quickly thawed at 37° C., washed twice with CAR-T cell culture medium, and used for animal injection at 6 million viable EGFRt+E2 CAR-T cells (CD4/CD8 at ~1:1) per animal. A small aliquot was taken on the day infusion for flow cytometric analysis of E2-CAR T-cell phenotypes.
EC17 and bis-EDA-FITC dosing solutions were prepared when dosing began by weighing appropriate amounts of each compound, reconstituting in PBS, pH 7.4, sterile filtering the drug solution through a 0.22 pm PVDF syringe filter, and freezing aliquots for each day of dosing at −20° C.
All EC17 doses were given towards the end of day (3-4 PM) to allow potential CRS (cytokine release syndrome) to develop overnight. In the following morning, animals were scored according to a CRS grading system (see below).
Daily body weight measurement on the days after EC17 dose is required. Attention was given to gross animal morphology and behavior. Euthanasia was performed if mice lose a lot of weight in a short duration or when mice are approaching moribund conditions per CRS grading system or neurotoxicity.
Tumor growth, body weight, and overall assessment: Body weight measured 2-3 times/week. On the days immediately after any EC17 dose, body weight measurement was taken daily, and attentions were given to gross animal morphology and behavior.
Whole blood cell analysis: Plasma was removed from predetermined volumes of whole EDTA treated blood and RBCs were lysed with RBC lysis solution. The leukocyte pellets were then resuspended in flow cytometry staining solution (1% bovine serum albumin, 50 mg/mL human IgG (Equitech Bio, cat #SLH56-0001), 0.9% sodium azide in a phosphate buffered saline, pH=7.4) and leukocyte surface marker staining was performed using the following antibodies: anti-human CD45 (clone HI30, eBioscience #47-0459-42 at 1:20 (v/v) dilution), anti-human CD137 (clone 4B4-1, BD Bioscience #564092 at 1:20 (v/v) dilution), anti-human CD8α [clone RPA-T8, BD Bioscience, catalog #557746 at 1:20 (v/v) dilution], anti-human CD4 [clone SK3, eBioscience catalog #46-0047-42 at 1:20 (v/v) dilution], anti-human EGFR [R&D systems, clone Hu1, catalog #FAB9577B @1:10(n/n)], anti-human PD1 [BD Biosciences, clone EH12.1, catalog #562511 @1:20 (v/v)], anti-human LAG3 [BD Biosciences, clone T47-530, catalog #565616 @1:20 (v/v)], anti-human TIM3 [BD Biosciences, clone 7D3, catalog #565558 @1:20 (v/v)], anti-human CD3ε [BD Biosciences, clone SK7, catalog #557832 @1:20 (v/v)]. After leukocyte staining, cells were washed with PBS and resuspended in cold PBS containing 53,000 CountBright™ beads [Invitrogen catalog #C36950] and transferred to flow cytometry collection tubes. Flow cytometry data was collected on the Gallios flow cytometer (Beckman Coulter, Brea, CA). Determination of the concentration of CAR T cells in each blood sample was calculated according to Invitrogen's instructions. CAR T cells were identified as human CD3ε+EGFRt+ events and easily distinguished and counted using the Kaluza™ flow cytometry software. […]

The conditions of data set [1]: cited from earlier work.
Where [2] appears, read: 6 million CAR-T + EC17 SIW 500 nmol/kg (Cohort 3).

On to `NC1=NC2N=CC(CNc3ccc(C(=O)N[C@@H](CCC(=O)NCCNC(=S)Nc4ccc(-c5c6ccc(=O)cc-6oc6cc(O)ccc56)c(C(=O)O)c4)C(=O)O)cc3)=NC2C(=O)N1` (some centres unmarked) [EC17, FA-(γ)-ethylenediamine-FITC], for which the figures for the body weight loss result with THP1-FRβ tumor cells (6 million CAR-T + EC17 M/Th/M dose escalation (Cohort 5)), in the data set on THP1-FRβ tumor cells (setting [2]) and in the data set with THP1-FRβ tumor cells (6 million CAR-T + EC17 TIW 5/50/500 nmol/kg on/off (Cohort 4)) were “little body weight loss during the first two cycles; also recorded: very mild body weight loss”, “EC17 dose-dependent body weight loss after each EC17 dose; also recorded: some body weight loss” and “mildest body weight loss among three treatment groups; also recorded: least body weight loss”, respectively. Besides, the CRS grade in the data set on THP1-FRβ tumor cells (setting [2]) is reported as 1-2. Also, the “circulating THP1-FRβ (GFP+) tumor cells in blood” value in the data set with THP1-FRβ tumor cells (E2 CAR T cells + EC17, all three dosing regimens, end of study) is given as “significant reduction in circulating THP1 cell burden; also recorded: effectively reduced circulating THP11-FRβ tumor cells in the blood”. Moreover, the non-liver macrometastases entry with THP1-FRβ tumor cells (EC17 M/Th/M dose escalation at a slow pace per cycle) is given as “failed to control the non-liver macrometastases”; in the data set with THP1-FRβ tumor cells (EC17 SIW 500 nmol/kg), “successfully controlled non-liver macrometastases”; in the data set with THP1-FRβ tumor cells (EC17 TIW 5/50/500 nmol/kg on/off), “successfully controlled non-liver macrometastases”. Moreover, in the data set with THP1-FRβ tumor cells (EC17 TIW 5/50/500 nmol/kg on/off (Cohort 4), Day 39), the “liver and non-liver (overall) tumor burden” value is listed as “best anti-tumor activity among the three different EC17 dose schedules; also recorded: trended to be the best regimen”. Also, in the data set on THP1-FRβ tumor cells (EC17 TIW (cohort 4)), the “co-expression of PD1, LAG3, TIM3 on CAR T cells from liver tumors” value was “fewest number of double and triple positive events”. Also, in the data set with THP1-FRβ tumor cells (all three EC17 dosing regimens), the “CAR T exhaustion” value is given as “very little induction of CAR T exhaustion”. Also, in the data set with THP1-FRβ tumor cells (any EC17 treated cohort), the “severe CRS (grades≥3)” value is “no severe CRS (i.e., grades≥3) was observed”. In the data set on THP1-FRβ tumor cells (satellite animals, day 31, all EC17 treated cohorts), the “circulating CAR-T cells in blood” value was “EC17-dependent CAR-T cell expansion and persistence in all treated cohorts”. In addition, the “Maximum Tolerated Dose (MTD)” value in data set [1] (EC17 doses of 3.1×10^−2 and 2.76×10^−1 mg/kg in previously-conducted human studies) is “not reached”. In addition, in data set [1] (intravenous, single agent, 84 subjects), the “subjects with mild hypersensitivity reaction (most common adverse event)” value is 10.7%. Moreover, the overall tolerability result in data set [1] (intravenous, single agent) is on record as “well tolerated”. Besides, in data set [1] (intravenous, single agent), the serious adverse events result is given as “No serious adverse events were reported”.
